Test results: article PMC7000209, “Novel small molecule modulators of quorum sensing in avian pathogenic Escherichia coli (APEC)” (Virulence, 2018)

What was measured:
[1] = tested on: G. mellonella larvae infected with APEC O78; test: Wax moth (G. mellonella) larva infection model; assay type: in vivo, Galleria mellonella; conditions: for increase in larval survival: 12.5 µg/larva (50 mg/kg), APEC O78 4.25 × 10^4 CFU, 72 h, vs DMSO treated controls; for clearance of APEC in surviving larvae / reduction of bacterial load in surviving larvae: live larvae at 72 h; for reduction of bacterial load in surviving larvae: in comparison to dead larvae
Protocol: G. mellonella caterpillars (larvae) in the final instar stage (fifth instar) were obtained from Vanderhorst, Inc. (St. Mary’s, Ohio, USA), stored in wood shavings in a petri dish in the dark and used within 7 days of receiving. Larvae with 15–25 mm length, 250–350 mg weight, having a creamy color with minimal speckling and no grey markings were used in this study. The infection was performed as described previously. For the inoculation, AI-2 inhibitors were diluted in a buffer mix (30% DMSO plus 10 mM MgSO4) as described previously and each larva (n = 10) was inoculated with 8.5 µL (50 mg/kg; 12.5 µg/larva) of the AI-2 inhibitors into the hemocoel via the last left proleg using PB600-1 repeating dispenser (Hamilton) attached to insulin syringe (31 gauge, 8 mm needle length; ReliOn). Larvae were placed inside sterile petri dishes and incubated for 2 h in the dark at 37 °C. Then, larvae were infected with 8.5 µL of (4.25 × 10^4 CFU) of Rif^R APEC O78 in 10 mM MgSO4 on the right hind proleg. Rif^R APEC O78 was generated as described above by plating APEC on LB agar plate containing 50 µg/ mL rifampicin for specific monitoring of APEC population inside the larvae. […] Infection dose of Rif^R APEC O78 to larvae was identified based on preliminary study (Figure S1). Larvae were incubated at 37°C in the dark and the survival was monitored daily for 72 h. Infected larvae treated with buffer mix and 75 mg/kg of chloramphenicol were used as controls.
For the quantification of APEC inside the larvae, dead and live larvae were surface sterilized with 70% ethanol, homogenized in PBS. The suspension was tenfold serially diluted and plated on MacConkey agar plates supplemented with 50 µg/mL of rifampicin. The plates were then incubated overnight at 37 °C and APEC load was enumerated. Two independent experiments were conducted using larvae (n = 10) obtained in different batches.

AI-2 activity of O115 = test: AI-2 bioluminescence indicator assay, APEC O115; assay type: cell-based, avian pathogenic E. coli (APEC) O115; conditions: Escherichia coli, read-out: % Inhibtion of AI-2 activity, serotype O115, bioluminescence vs DMSO treated control
Protocol: (§1) Overnight culture of APEC O78 prepared in LB broth was adjusted to an optical density (OD600) of 0.05 (7 × 10^7 CFU/mL) in fresh LB broth. One hundred micro-liters of the culture was transferred to a 96-well plate and 1µL (100 μM final concentration) of the compound was added to each well using a pin tool. Chloramphenicol (40 μg/mL) or kanamycin (30 μg/mL) and 1μL of 100% DMSO were included as controls in each plate. Plates were incubated at 37 °C for 10 h with shaking in a Sunrise^TM Tecan plate reader (Tecan Group Ltd. San Jose, CA, USA) and the growth was kinetically monitored every 30 min by measuring the OD at 600 nm.
(§2) The AI-2 bioluminescence assay was performed as described previously. Briefly, APEC O78 cultures grown in the presence of SMs (see above) were centrifuged at 5000 × g for 10 min, and cell-free culture supernatants were prepared by using a 0.22 µm filter 96 well plate (Millipore). The bioluminescence reporter V. harveyi BB170 (AI-1^+ and AI-2^-) was grown overnight in AB medium at 30 °C aerobically with shaking. The overnight culture was diluted to 1:5000 in fresh AB medium and incubated at 30 °C for 3 h. Following incubation, 180 μL of the V. harveyi BB170 culture was distributed into each well of a 96-well plate and mixed with 20 µL of the cell free culture supernatant, the plate was then incubated at 30 °C for 2.5 h in the dark and the bioluminescence was measured using in vivo imaging system (IVIS Lumina Series III, PerkinElmer, USA). […] Cell-free culture supernatants collected from overnight cultures of V. harveyi BB120 (AI-1^+andAI-2^+) and E. coli DH5α (a strain lacks AI-2) were used as controls. Bioluminescence of SMs treated culture supernatants were compared to DMSO treated control. The Z-score was calculated to evaluate the quality of the bioluminescence screening. Four independent experiments were conducted for the 69 compounds that inhibited ≥ 75% of the AI-2 mediated bioluminescence and the average inhibition percentage was calculated.
(§3) The selected compounds were also tested for inhibition of AI-2 production in other APEC serotypes such as O1, O2, O8, O15, O18, O35, O109, and O115 that are commonly implicated in colibacillosis using the same procedure described above.

AI-2 activity of APEC O2 = test: AI-2 bioluminescence indicator assay, APEC O2; assay type: cell-based, avian pathogenic E. coli (APEC) O2; conditions: Escherichia coli, read-out: % Inhibtion of AI-2 activity
Protocol: as §1, §2, §3

[2] = tested on: AI-2 activity of APEC O78; test: AI-2 bioluminescence indicator assay (V. harveyi BB170), APEC O78 supernatant; assay type: cell-based, avian pathogenic E. coli (APEC) O78; conditions: Escherichia coli, read-out: % Inhibtion of AI-2 activity
Protocol: as §1, §2

[3] = tested on: APEC O78 biofilm formation; test: Biofilm assay (crystal violet); assay type: cell-based, avian pathogenic E. coli (APEC) O78; conditions: 48 h; for inhibition at 100 µM: Escherichia coli, crystal violet OD550 vs DMSO control, read-out: reduction of APEC O78 biofilm formation
Protocol: Effect of the selected AI-2 inhibitors on biofilm formation was assessed using the crystal violet (CV) assay. Briefly, APEC O78 was grown in LB broth in the presence of 100 µM of each compound in a 96-well plate at 37 °C for 10 h. The culture was then diluted 1:100 in fresh LB broth. The biofilm assay was performed in a 96-well plate containing 150 µL of the diluted culture and 100 µM of each compound. The plate was then incubated aerobically without shaking at 37 °C for 48 h, washed twice with PBS to remove the non-adherent cells and stained with 200 µL of 0.1% CV in water at room temperature for 10 min. The plate was washed with PBS and biofilm was quantified by measuring the absorbance at 550 nm after solubilizing the CV in 200 μL of 30% acetic acid in water for 15 min.

[4] = tested on: AI-2 activity of APEC O78; test: AI-2 bioluminescence indicator assay (V. harveyi BB170), APEC O78 supernatant; assay type: cell-based, avian pathogenic E. coli (APEC) O78; conditions: Escherichia coli, read-out: AI-2-associated bioluminescence inhibition

| Structure (SMILES) | larval death at 48 h post treatment (in words) [1] | inhibition at 100 µM (AI-2 activity of O115) [%] | inhibition at 100 µM (AI-2 activity of APEC O2) [%] | inhibition at 100 µM [2] [%] | inhibition at 100 µM [3] [%] | larval death at 72 h post treatment (in words) [1] | inhibition at 50 µM [4] [%] | increase in larval survival [1] [%] | clearance of APEC in surviving larvae [1] [%] | reduction of bacterial load in surviving larvae [1] | effect on APEC O78 biofilm formation (in words) ([3]; 100 µM, vs DMSO treated control) |
| --- | --- | --- | --- | --- | --- | --- | --- | --- | --- | --- | --- |
| Cc1ccc(CN2CCN(CCCc3ccccc3)CC2)cc1 [C5, 1-(4-methylbenzyl)-4-(3-phenylpropyl)piperazine] | no larval death | 63 | 89 | 83 | 63 to 66 |  |  |  |  |  |  |
| CS/C(N)=N/N=C/c1cc(C)ccc1O [C4, methyl N'-(2-hydroxy-5-methylbenzylidene)h ydrazonothiocarbamate] |  | 58 | 76 | 75 | 63 to 66 |  |  |  |  |  |  |
| O=C(CCN1CCN(c2ccccc2F)CC1)Nc1ccc(Br)cc1 [C7, N-(4-bromophenyl)-3-[4-(2-fluorophenyl)-1-piperazinyl]propanamide] |  | 45 | 83 | 94 | 63 to 66 | no larval death | 25 |  |  |  |  |
| NC(=O)c1ccccc1Nc1cccc(C(F)(F)F)c1 [C3, 2-{[3-(trifluoromethyl)phenyl]amino}benzamide] |  | 35 | 54 | 78 | 63 to 66 |  |  |  |  |  |  |
| Cc1ccccc1N1CCN(C2CCCN(C(=O)c3ccc(F)c(Cl)c3)C2)CC1 (stereo not drawn) [C2, 1-[1-(3-chloro-4-fluorobenzoyl)-3-piperidinyl]-4-(2-methylphenyl)piperazine] | no larval death | 52 | 96 | 92 | 52 to 58 |  |  | 30 | 100 | up to 5 logs |  |
| OCCC1CN(C2CCN(c3ccccc3)CC2)CCN1CCCc1ccccc1 (stereo not drawn) [C10, 2-[4-(1-phenyl-4-piperidinyl)-1-(3-phenylpropyl)-2-piperazinyl]ethanol] |  | ≥ 75 | 89 | 84 | 52 to 58 |  | 25 |  |  |  |  |
| CCc1ccccc1Nc1nc(-c2c(C)nc3ccccn23)cs1 [C8, N-(2-ethylphenyl)-4-(2-methylimidazo[1,2-a]pyridin-3-yl)-1,3-thiazol-2-amine] | no larval death | 44 | 94 | 98 | 52 to 58 |  |  |  | 100 | up to 5 logs |  |
| Fc1ccc(CN2CCCN(Cc3nc(-c4ccc(C(F)(F)F)cc4)no3)CC2)cc1 [C9, 1-(4-fluorobenzyl)-4-({3-[4-(trifluoromethyl)phenyl]-1,2,4-oxadiazol-5-yl}methyl)-1,4-diazepane] |  | 44 | 51 | 79 | 52 to 58 |  | 25 |  |  |  |  |
| O=[N+]([O-])c1cccc(S(=O)(=O)Nc2ccc(Br)cc2)c1 [C6, N-(4-bromophenyl)-3-nit robenzenesulfonamide] | no larval death |  | 93 | 92 | 63 to 66 |  |  |  |  |  |  |
| COCCN1CCC(CN(Cc2ccncc2)Cc2ccccc2Cl)CC1 [C1, (2-chlorobenzyl){[1-(2-methoxyethyl)-4-piperidinyl]methyl}(4-pyridinylmethyl)amine] |  | 64 | 94 | 84 |  | no larval death |  | 23 |  |  | no effect |
